| Structure (SMILES) | melting point [°C] |
| --- | --- |
| CC(=O)N1C(=O)C(C(=O)c2ccco2)c2ccccc21 (centres undefined) | 138 |
| CC(CC(=O)O)C(=O)c1ccc(-n2ccc(=O)cc2)cc1 (centres undefined) | 250 to 252 |
| CCCc1c2nc(C(=O)OC)cc(N(C)S(=O)(=O)c3ccc(C)cc3)c2cc2c(=O)cc(C(=O)OCC)oc12 | 173 to 174 |
| O=C(O)c1cc2cc(Cl)c(Cl)cc2nc1N[C@H](Cc1c[nH]c2ccccc12)C(=O)O | > 250 |
| CCc1cc2ccccn2c1 | 42 to 44 |
| O=C(O)Cn1ccn(C2CCc3ccccc3C2)c1=S (centres undefined) | 228 to 230 |
| Cn1c(N)cc(=O)n1-c1ccccc1 | 205 to 215 |
| CC(C)(C)c1cc(SCCC(=O)N(C2CCCCC2)C2CCCCC2)cc(C(C)(C)C)c1O | 168 to 172 |
| Cc1cc2c(c(C(C)(C)C)c1)OC(=O)C2O (centres undefined) | 152 to 160 |
| CCOc1ccc2c(c1)C(C)=CC(C)(C)N2C(=O)Cl | 75.5 to 76.5 |
| Nc1cc(N2CCN(C34CC5CC(CC(C5)C3)C4)CC2)nc(N)n1 | 265 to 268 |
| O=C(CNc1c(C(=O)O)[nH]c2cc(Cl)ccc12)c1ccccc1O | 198 to 200 |
| COc1ccc(C2=NNC(=O)CC2)cc1N | 218 to 220 |
| NC(=O)c1ncn2c1[C@@H]1CCCN1C(=O)c1sccc1-2 | 222 to 223 |
| CNC(=O)C(Sc1nc2cc(Cl)ccc2s1)c1ccccc1 (centres undefined) | 170 to 171 |
| COc1ccc(-c2cc3cc(F)c(F)cc3[nH]2)cc1NCc1cccs1 | 190 to 192 |
| O=C(O)CN(CCN(CC(=O)O)C(Cc1ccccc1)C(=O)O)CCN(CC(=O)O)C(Cc1ccccc1)C(=O)O (centres undefined) | 111 to 115 |
| CCOCC1(O)c2ccccc2CCc2cc(OC)c(OC)cc21 (centres undefined) | 98 to 100 |
| CCOc1nsc(S(C)(=O)=O)c1S(C)(=O)=O | 158 to 160 |
| O=C1C(=O)c2ccccc2C2=C1SCC1(CCN(CCOc3ccc(Cl)cc3)CC1)O2 | 131 to 133 |
| O=C(O)c1ccccc1-c1nc2ccccc2o1 | > 250 |
| OCc1cc2ccc3ccccc3c2o1 | 106 to 107 |

| Structure (SMILES) | melting point [°C] |
| --- | --- |
| C#CC1CCC(c2ccc(C3CCC(CCC)CC3)cc2)CC1 (centres undefined) | 143 |
| COc1cc2ccc(C(=O)CBr)cc2cc1OC | 120 to 122 |
| CCC(=NOC)c1ccc(=O)[nH]c1CC | 120 to 125 |
| Nc1nc2c(s1)CCN(CC=Cc1ccc(F)cc1)CC2 | 142 to 146 |
| CCOC(=O)NN=Cc1c[nH]c(C)n1 | 210 to 212 |
| CC1(C)CC(=O)Nc2ccc([N+](=O)[O-])cc21 | 202 to 204 |
| CCCCN1CCCC1CNC(=O)c1cc(S(N)(=O)=O)cc2c1OC(C)C2 (centres undefined) | 170 |
| O=C(CO)NCCCCCCCCCCNC(=O)CO | 120 to 122 |
| CN(Cc1ccco1)c1nccc(Oc2ccc(NC(=O)c3cc(F)cc(N4CCCCC4)c3)c3ccccc23)n1 | 155 to 156 |
| COc1ccccc1N1CCN(CCCNC(=O)c2csc3c(=O)cc(-c4ccccc4)oc23)CC1 | 161 to 162 |
| Cc1ccccc1N(Cc1cccnc1)S(C)(=O)=O | 97 to 98 |
| CC(C)Cn1cc(C(N)=O)c(N)n1 | 154 to 158 |
| CC(C)NCC1(O)COc2ccc([N+](=O)[O-])cc2OC1 (centres undefined) | 97.5 to 99 |
| CCc1ccc2c(c1)C=Cc1oc(C)nc1C2c1cn(-c2ccnc(NCC(=O)Nc3nc(CC(=O)O)cs3)n2)c(=O)[nH]c1=O (centres undefined) | 205 to 210 |
| CS(=O)(=O)Nc1cccc(Nc2nc(N3CCN(c4ccncc4)CC3)c3nc[nH]c3n2)c1 | 227 to 230 |
| CSc1nnc(-c2cc(C(C)(C)C)c(O)c(C(C)(C)C)c2)s1 | 122 |
| C=CCN1Cc2nc3c(cnn3CCC#CC)c(N)c2C1=O | 192 to 194 |
| Oc1cc2c(cc1F)[C@H](O)[C@H](N1CCC(O)(c3ccc(F)cc3)CC1)CO2 (relative stereo) | 160 to 161 |
| CCOC(=O)C(=CNc1nncs1)C(=O)OCC | 107 to 111 |
| O=S(=O)(O)CCCN1CCCc2ccccc21 | 233 to 237 |
| NC(=S)NCc1ccccc1Cl | 120 to 122 |

Second part, the molecule after the results:

| melting point [°C] | Structure (SMILES) |
| --- | --- |
| 153 to 154 | Cc1cc(-n2ccc(OCc3ccccc3)cc2=O)sc1C(=O)NCc1ccccc1 |
| 163 to 168 | COc1ccc(NC(=O)c2ccc(C3(C#N)CCCC3)cc2)cc1 |
| 167 to 168 | COc1ccc2c(c1)c(C(C)=O)cn2C |
| 212 to 214 | CC(C)(C)c1cc(-c2nnc(NCCO)s2)cc(C(C)(C)C)c1O |
| > 250 | CN1CCN(c2ccnc3c(NC(=O)c4c(Cl)cccc4Cl)cc(Cl)cc23)C1=O |
| 103 to 105 | Cc1cc(Oc2c(Cl)cc(C(F)(F)F)cc2Cl)nn1C(=O)NC(C)C |
| 113 to 116 | CN1CCC(=C2c3ccccc3COc3cc(Cl)ccc32)CC1 |
| 64 to 69 | O=C(O)CSc1nc(Cl)cc(NCc2ccc(Cl)c(Cl)c2)n1 |
| 100 to 102 | COc1ccc(-n2nc(CO)cc2-c2ccc(C)cc2)cc1 |
| 154 to 163 | CCc1ccc2c(c1)[C@@H](N1CCCC1=O)[C@H](O)C(C)(C)O2 (relative stereo) |
| 245 | Cc1cc(-c2cnn3c(C(F)(F)F)cc(-c4ccc(C(F)(F)F)c(OCC(F)(F)F)c4)nc23)cc(C)n1 |
| 192 to 193 | O=C1CCN(Cc2ccc([N+](=O)[O-])cc2)C(=O)C1=C1SC=CS1 |
| 152 to 153 | Cc1ccccc1CCC(=O)NCc1ncc(C(F)(F)F)cc1Cl |
| 140 to 142 | Nc1cc2c(cc1[N+](=O)[O-])CCO2 |
| 173 to 174 | Cc1ccc(S(=O)(=O)N(C)c2ccc(O)cc2)cc1[N+](=O)[O-] |
| 99.6 to 100 | CCOC(=O)c1cc(-c2ccccc2)n(-c2cccc(Cl)c2)c1C |

| melting point [°C] | Structure (SMILES) |
| --- | --- |
| 144 to 146 | COc1ccc(Oc2cc3nc(-c4ccc(Cl)cc4Cl)oc3cc2[N+](=O)[O-])cc1 |
| 117 to 119 | CC(C)(C)c1cc(OCc2ccccc2C#N)cc(C(C)(C)C)c1O |
| 68 to 69 | OC(=S)CCc1ccc(F)cc1 |
| 138 to 145 | CCOc1ccc(-n2nc(Sc3ccc(Cl)cc3)c(C)c(C#N)c2=O)cc1 |
| 84 to 86 | COC(=O)NC(=NS(=O)(=O)NC1CCCCC1)OC |
| 182 | COc1ccc(Cl)cc1C(=O)NCCc1ccc(CC2SC(=O)NC2=O)cc1 (centres undefined) |
| 203 to 205 | O=C(O)Cc1cc(Cc2nc3c(F)c(F)cc(F)c3s2)cc(C(=O)O)c1 |
| 130 to 132 | N#CCc1c[nH]c2ccc(OCc3ccccc3)c(Cl)c12 |
| 243 to 245 | CN1C(C(=O)Nc2ccc(Cl)ccc2=O)=C(O)c2sccc2S1(=O)=O |
| 158 to 160 | CCOC(=O)c1cn(-c2c(F)cc(F)cc2F)c2nc(Cl)c(F)cc2c1=O |
| 60 to 62 | N#CCc1cccc(CO)c1[N+](=O)[O-] |
| 210 to 212 | COCCOc1cc2ncc(C#N)c(Nc3cc(OC)c(Cl)cc3Cl)c2cc1OC |
| 144 to 145 | COc1cc2c(cc1OCc1ccccc1)CCN(Cc1cc(OC)c(OC)c(OC)c1)C2 |
| 178 to 179 | CCCCC(=O)Nc1cccc2c1C(=O)N(C1CCC(=O)NC1=O)C2=O (centres undefined) |
| 106 to 108 | Cc1ccc(C)c(OCc2ccccc2C(=O)c2cc(C)no2)c1 |

Reference: a melting point compilation (Tetko et al.; mined from patent text by program, amines drawn as free bases though some values may be those of a salt)
